Results from US20200385489A1, “USING COLIPASE INHIBITORS TO TREAT PANCREATITIS” (Mayo Foundation for Medical Education and Research, priority 2015, published 2020).

Experiments:
[1] = tested on: Differentiated 3T3-LI adipocytes; experiment: MCP-1 release from PTL-transfected 3T3-LI adipocytes with colipase (luminex); format: cell-based; conditions: PTL + colipase 0.25 mcg/mL; orlistat 20 micromolar every 2 hours
Description: (§1) Differentiated 3T3-LI adipocytes with lipid droplets were transfected with adenovirus expressing pancreatic triglyceride lipase (PTL) or left as unstimulated controls. The medium was replaced with serum free medium alone or with colipase (0.25 mcg/mL). In some wells the lipase inhibitor orlistat (20 micromolar) was added every 2 hours. Cytokine release was measured as a marker of inflammatory response. MCP-1 release into the medium was measured by luminex. There was a significant release of MCP-1 only when both colipase and PTL were present. This release was prevented by orlistat (FIG. 6B).

adipocytes = experiment: Isoproterenol induced lipolysis in adipocytes (glycerol release); format: cell-based; conditions: Iso 10 μM; inhibitor 50 μM
Description: (§2) Adipocytes were stimulated by isoproterenol (Iso 10 μM) or co-cultured with pancreatic acini. The adipose triglyceride lipase (ATGL) inhibitor atglistatin or the pancreatic lipase inhibitor orlistat (50 μM each) was added in some conditions.
Glycerol release was measured as a marker of lipolysis in adipocytes. Isoproterenol induced lipolysis in adipocytes.

[2] = tested on: Differentiated 3T3-LI adipocytes; experiment: LDH leakage from PTL-transfected 3T3-LI adipocytes with colipase; format: cell-based; conditions: over 8 hours
Description: (§3) Differentiated 3T3-LI adipocytes with lipid droplets were transfected with adenovirus expressing pancreatic triglyceride lipase (PTL) to induce lactate dehydrogenase (LDH) leakage or left as unstimulated controls. The medium was replaced with serum free medium alone or with colipase (0.25 mcg/mL). In some wells the lipase inhibitor orlistat (20 micromolar) was added every 2 hours.
LDH leakage into the medium was measured as a marker of cell injury. […] Colipase increased this to 30-40% LDH leakage compared to controls. […] Glycerol release was measure as a marker of lipolysis. […] Colipase increased glycerol release compared to controls. Glycerol release was prevented by the lipase inhibitor orlistat (FIG. 3B).

Rat parotid acini = experiment: LDH leakage from rat parotid acini exposed to glyceryl trilinoelate, human PTL and human colipase; format: cell-based; conditions: glyceryl trilinoelate 300 micromolar + human PTL 1 micrograms/mL + human colipase 0.25 micrograms/mL; orlistat 50 micromolar or serum 1:4 dilution; over 4 hours
Description: Cells exposed to glyceryl trilinoelate, PTL, and colipase were treated at a 1:4 dilution with either orlistat (50 micromolar), serum from mice immunized against human colipase, or serum from unimmunized mice. […] (LDH) leakage into the medium was measured over 4 hours.

pancreatic acini = experiment: Adipocyte induced necrosis in pancreatic acini (co-culture); format: cell-based; conditions: inhibitor 50 μM
Description: as §2
Co-culture of adipocytes and pancreatic acini induced necrosis in the acini.

[3] = tested on: Differentiated 3T3-LI adipocytes; experiment: Glycerol release (lipolysis) from PTL-transfected 3T3-LI adipocytes with colipase; format: cell-based; conditions: PTL + colipase 0.25 mcg/mL; orlistat 20 micromolar every 2 hours; over 8 hours
Description: as §3, with “hours. LDH leakage into the medium was measured as a marker of cell injury. […] Colipase increased this to 30-40% LDH leakage compared to controls. […] Glycerol release was measure as a marker of lipolysis. […] Colipase increased glycerol release compared to controls. Glycerol release was prevented by the lipase inhibitor orlistat (FIG. 3B).” for “hours.”

[4] = tested on: rats with lethal pancreatitis; experiment: Caerulein plus glyceryl trioleate lethal pancreatitis in rats; format: in vivo, rat; conditions: orlistat 50 mg/kg
Description: Pancreatitis was induced in rats and flow cytometry was performed on white blood cells (WBCs) from peripheral blood.
Rats (100 gm rats) were either given caerulein (20 mcg/kg BID (twice a day) intraperitoneally) to induce pancreatitis or left untreated as control animals. Some rats were also given glyceryl trioleate (3 ml intraperitoneally) to induce lactate dehydrogenase (LDH) leakage. Some rats also received the lipase inhibitor orlistat (50 mg/kg). Blood was collected from rats 2 days after induction of caerulein pancreatitis with or without administration of caerulein, glyceryl trioleate, and/or orlistat.

[5] = tested on: Differentiated 3T3-LI adipocytes; experiment: IL-6 release from PTL-transfected 3T3-LI adipocytes with colipase (luminex); format: cell-based; conditions: PTL + colipase 0.25 mcg/mL; orlistat 20 micromolar every 2 hours
Description: as §1, with “IL-6” for “MCP-1”, “6A).” for “6B).”

Molecule	MCP-1 release into the medium [1]	Isoproterenol induced lipolysis (glycerol release) (adipocytes)	LDH leakage into the medium (marker of cell injury) ([2]; PTL + colipase 0.25 mcg/mL, orlistat 20 micromolar added every 2 hours)	LDH leakage into the medium (Rat parotid acini)	Adipocyte induced necrosis in pancreatic acini as measured by glycerol release (pancreatic acini)	Adipocyte induced necrosis in pancreatic acini as measured by propidium iodide uptake (pancreatic acini)	Glycerol release (marker of lipolysis) [3]	Survival ([4]; caerulein + glyceryl trioleate (97% mortality by day 3 without treatment))	Apoptosis of circulating cells (annexin V positive CD11b) ([4]; caerulein + glyceryl trioleate, blood 2 days after induction)	IL-6 release into the medium [5]	LDH leakage compared to controls ([2]; PTL-transfected adipocytes, colipase 0.25 mcg/mL)
CCCCCCCCCCC[C@@H](C[C@@H]1OC(=O)[C@H]1CCCCCC)OC(=O)[C@H](CC(C)C)NC=O [orlistat]	prevented	but not orlistat, inhibited	completely prevented	significantly reduced	inhibited	inhibited	prevented	survive	prevented	prevented	–
CN(C)C(=O)Nc1cccc(-c2ccc(N(C)C)cc2)c1 [atglistatin]	–	inhibited	–	–	–	–	–	–	–	–	–
Colipase: colipase polypeptide added to the medium (0.25 mcg/mL) as cofactor of pancreatic lipases (protein, UniProt P04118 23-112, looked up) Colipase: GIIINLENGELCMNSAQCKSNCCQHSSALGLARCTSMASENSECSVKTLYGIYYKCPCERGLTCEGDKTIVGSITNTNFGICHDAGRSKQ	–	–	–	–	–	–	–	–	–	–	30-40%
